Laboratory results: ChEMBL document CHEMBL2429779, “Synthesis and anti-inflammatory activity of three nitro chalcones” (Bioorg Med Chem Lett, 2013)
Activity calls are given as the source filed them. The rule behind the calls is not given here.

What was measured:
Rattus norvegicus [1] = assay: Antiinflammatory activity in Wistar rat assessed as protection against carrageenan-induced paw edema at 200 mg/kg, po by pletismometric analysis; assay type: functional, organism-based; set-up: dose 200 mg/kg; details: TDE = time-dependent effect
Rattus norvegicus [2] = assay: Antiinflammatory activity in Wistar rat assessed as protection against carrageenan-induced paw edema at 200 mg/kg, ip by pletismometric analysis; assay type: functional, organism-based; set-up: dose 200 mg/kg; details: TDE = time-dependent effect
[3] = Solubility of the compound in DMSO; assay type: physicochemical
Rattus norvegicus [4] = assay: Antiinflammatory activity in Wistar rat assessed as protection against carrageenan-induced paw edema at 200 mg/kg, ip measured after 3 to 7 hrs by pletismometric analysis relative to vehicle-treated control; assay type: functional, organism-based; set-up: dose 200 mg/kg
Rattus norvegicus [5] = assay: Antiinflammatory activity in Wistar rat assessed as protection against carrageenan-induced paw edema at 200 mg/kg, po after 2 to 7 hrs by pletismometric analysis relative to vehicle-treated control; assay type: functional, organism-based; set-up: dose 200 mg/kg
Rattus norvegicus [6] = assay: Antiinflammatory activity in Wistar rat assessed as protection against carrageenan-induced paw edema at 200 mg/kg, po after 2 hrs by pletismometric analysis relative to vehicle-treated control; assay type: functional
Rattus norvegicus [7] = assay: Antiinflammatory activity in Wistar rat assessed as protection against carrageenan-induced paw edema at 200 mg/kg, po after 1 hr by pletismometric analysis relative to vehicle-treated control; assay type: functional
[8] = Solubility of the compound in water; assay type: physicochemical; details: buffer
Rattus norvegicus [9] = assay: Antiinflammatory activity in Wistar rat assessed as protection against carrageenan-induced paw edema at 200 mg/kg, ip measured after 2 hrs by pletismometric analysis relative to vehicle-treated control; assay type: functional; details: route intraperitoneal
Rattus norvegicus [10] = assay: Antiinflammatory activity in Wistar rat assessed as protection against carrageenan-induced paw edema at 200 mg/kg, po after 3 to 7 hrs by pletismometric analysis relative to vehicle-treated control; assay type: functional, organism-based; set-up: dose 200 mg/kg
Rattus norvegicus [11] = assay: Antiinflammatory activity in Wistar rat assessed as protection against carrageenan-induced paw edema at 200 mg/kg, ip measured after 1 hr by pletismometric analysis relative to vehicle-treated control; assay type: functional; details: route intraperitoneal
Rattus norvegicus [12] = assay: Antiinflammatory activity in Wistar rat assessed as protection against carrageenan-induced paw edema at 200 mg/kg, po after 7 hrs by pletismometric analysis relative to vehicle-treated control; assay type: functional
Rattus norvegicus [13] = assay: Antiinflammatory activity in Wistar rat assessed as protection against carrageenan-induced paw edema at 200 mg/kg, ip measured after 2 to 7 hrs by pletismometric analysis; assay type: functional, organism-based; set-up: dose 200 mg/kg
Rattus norvegicus [14] = assay: Antiinflammatory activity in Wistar rat assessed as protection against carrageenan-induced paw edema at 10 mg/kg, po after 2 hrs by pletismometric analysis relative to vehicle-treated control; assay type: functional
Rattus norvegicus [15] = assay: Antiinflammatory activity in Wistar rat assessed as protection against carrageenan-induced paw edema at 10 mg/kg, po after 3 to 7 hrs by pletismometric analysis relative to vehicle-treated control; assay type: functional
Rattus norvegicus [16] = assay: Antiinflammatory activity in Wistar rat assessed as protection against carrageenan-induced paw edema at 200 mg/kg, po after 4 to 7 hrs by pletismometric analysis relative to vehicle-treated control; assay type: functional
Rattus norvegicus [17] = assay: Antiinflammatory activity in Wistar rat assessed as protection against carrageenan-induced paw edema at 200 mg/kg, po after 3 hrs by pletismometric analysis relative to vehicle-treated control; assay type: functional
Rattus norvegicus [18] = assay: Antiinflammatory activity in Wistar rat assessed as protection against carrageenan-induced paw edema at 200 mg/kg, ip measured after 2 to 7 hrs by pletismometric analysis relative to vehicle-treated control; assay type: functional; details: route intraperitoneal

solubility [3] | solubility [8] | Structure (SMILES) | Activity (Rattus norvegicus [1]) | Activity (Rattus norvegicus [2]) | Activity (Rattus norvegicus [4]) | Activity (Rattus norvegicus [5]) | Activity (Rattus norvegicus [6]) | %max (Rattus norvegicus [7]) | %max (Rattus norvegicus [9]) | %max (Rattus norvegicus [6]) | Activity (Rattus norvegicus [10]) | %max (Rattus norvegicus [11]) | Activity (Rattus norvegicus [12]) | Activity (Rattus norvegicus [13]) | %max (Rattus norvegicus [14]) | Activity (Rattus norvegicus [15]) | Activity (Rattus norvegicus [16]) | %max (Rattus norvegicus [17]) | Activity (Rattus norvegicus [18])
soluble | Insoluble | O=C(/C=C/c1ccccc1)c1ccc([N+](=O)[O-])cc1 | tde | tde | Active | Active | 20% | 38% | 43.2% | – | – | – | – | – | – | – | – | – | –
soluble | Insoluble | O=C(/C=C/c1ccccc1)c1cccc([N+](=O)[O-])c1 | tde | tde | – | – | – | – | – | 31% | inactive | 68% | 0% | Active | – | – | – | – | –
– | – | Cc1cnc(NC(=O)C2=C(O)c3ccccc3S(=O)(=O)N2C)s1 [MELOXICAM] | – | – | – | – | – | – | – | – | – | – | – | – | 59.3% | 50% | – | – | –
soluble | Insoluble | O=C(/C=C/c1ccccc1)c1ccccc1[N+](=O)[O-] | tde | tde | – | – | – | – | – | – | – | 58.2% | – | – | – | – | 30% | 34.8% | 50%
